Measurements from patent EP0098136A2, “Primary and secondary alcohol dehydrogenase enzymes and the use thereof” (priority 1982, dated 1984).
“Also recorded” adds a separate entry of the source. Read-outs that look alike come from different tables or passages of the source. Each block holds one compound with its values, some of them ahead of it.

Legend:
[1] = system: secondary alcohol dehydrogenase enzyme; experiment: Substrate and cofactor specificity of the purified enzyme; assay type: biochemical, Pseudomonas fluorescens NRRL B-1244; settings: for oxidation rate / activity as substrate (in words): purified enzyme, NAD^+
Experimental: The rate of dehydrogenation of the primary and secondary alcohols tested was measured with a fluorescence spectrophotometer by following the formation of reduced NAD^+ (excitation at 340 nm, emission at 460 nm). […] The reaction was initiated by the addition of the substrate alcohol. The product aldehydes or ketones were identified by retention time comparisons and cochromatography with authentic standards using flame ionization gas chromatography (a stainless steel column was maintained isothermally at 110 °C). Specific oxidation rates were expressed as nmoles of product formed per min. per mg of protein.
The purified enzyme from step 5 of Example 2 was used in the procedure of Example 1 to oxidize primary and secondary alcohols, diols and aldehydes. The specificity of the dehydrogenase for the substrates is expressed as nmoles of product formed per min. per 85 µg of protein and as a percentage relative to the oxidation rate of 2-propanol (designated as 100% oxidation rate) in Table V.

[2] = system: secondary alcohol dehydrogenase enzyme; experiment: Inhibition of secondary alcohol dehydrogenase activity (oxidation of 2-propanol in the presence of potential inhibitors); assay type: biochemical, Pseudomonas fluorescens NRRL B-1244
Experimental: The activity of the NAD^+-linked secondary alcohol dehydrogenase in each fraction was measured using a fluorescence spectrophotometer by monitoring the formation of reduced NAD^+ (excitation at 340 nm, emission at 460 nm). The assay system (3 ml) contained 150 µmole sodium phosphate buffer pH 7.0, 1.0 µmole NAD^+, a given amount of enzyme fraction, and 20 µ cmole 2-propanol substrate. […] Protein concentrations in each fraction were determined by the method of O.H. Lowry et al., J. Biol. Chem., 193, 255 (1951).
The oxidation of 2-propanol by the purified extract of secondary alcohol dehydrogenase enzyme was conducted in the presence of a lmM concentration of one of the metal chelating agents and thio-reagents listed in Table VI.

[3] = system: secondary alcohol dehydrogenase
[4] = system: secondary alcohol dehydrogenase enzyme; assay type: biochemical, Pseudomonas fluorescens NRRL B-1244
Experimental: The effect of NAD^+ and 2-propanol concentrations on the enzyme activity was studied at 25 °C in 0.05 M sodium phosphate buffer pH 7.0. 2-Propanol was kept at a saturated level (6.6 mM) for the determination of the Km value for NAD^+; and NAD^+ was maintained at a saturated level (lmM) for determining the Km value for 2-propanol.

[5] = 1 mM inhibitor, oxidation of 2-propanol by purified enzyme

SMILES: CC(O)CCO (stereo not shown) [1,3-butanediol]
oxidation rate / activity as substrate (in words) [1]: highest activity

% Inhibition [2, 5]: 100%
SMILES: c1cnc2c(c1)ccc1cccnc12 [1,10-phenanthroline]

SMILES: CCC(C)O (stereo not shown) [2-butanol]
% of original activity ([3]; 0.9 M 2-butanol solution): 40%
% of its activity ([3]; 1.1 M 2-butanol solution): 30%
oxidation rate / activity as substrate (in words) [1]: highest oxidation rate; also recorded: highest activity

SMILES: CC(C)O [2-propanol]
Km ([4]; pH 7, read-out: Km value for 2-propanol): 85 µM
oxidation rate / activity as substrate (in words) [1]: highest activity

SMILES: O=C(O)c1cc(SSc2ccc([N+](=O)[O-])c(C(=O)O)c2)ccc1[N+](=O)[O-] [5,5'-dithiobis-(2-nitrobenzoate)]
inhibition of enzyme activity (in words) [2]: inhibited
% Inhibition [2, 5]: 100%

SMILES: O=[N+]([O-])c1ccc(O)c2ncccc12 [5-nitro-8-hydroxyquinoline]
inhibition of enzyme activity (in words) [2]: inhibited
% Inhibition [2, 5]: 100%

SMILES: [Cu+2] [Cu^2+]
% Inhibition [2, 5]: 10%

SMILES: [Hg+2] [Hg^2+]
% Inhibition [2, 5]: 100%

SMILES: CCN1C(=O)C=CC1=O [N-ethylmaleimide]
% Inhibition [2, 5]: 33%

oxidation rate with NADP^+ as cofactor relative to NAD^+ ([1]; NADP^+ as cofactor): about 50%
SMILES: NC(=O)c1ccc[n+]([C@@H]2O[C@H](COP(=O)([O-])OP(=O)(O)OC[C@H]3O[C@@H](n4cnc5c(N)ncnc54)[C@H](OP(=O)(O)O)[C@@H]3O)[C@@H](O)[C@H]2O)c1 [NADP^+]

SMILES: NC(=O)c1ccc[n+]([C@@H]2O[C@H](COP(=O)([O-])OP(=O)(O)OC[C@H]3O[C@@H](n4cnc5c(N)ncnc54)[C@H](O)[C@@H]3O)[C@@H](O)[C@H]2O)c1 [NAD^+, nicotinamide adenine dinucleotide]
Km ([4]; 25°C, 0.05 M sodium phosphate buffer pH 7.0, 2-propanol saturated (6.6 mM), read-out: Km value for NAD^+): 8.2 µM

% Inhibition [2, 5]: 0%
SMILES: CC(N)=O [acetamide]

SMILES: CC(C)=O [acetone]
rate of reduction of acetone to propanol relative to the forward reaction [1]: about 20%

% Inhibition [2, 5]: 0%
SMILES: O=C(O)CN(CCN(CC(=O)O)CC(=O)O)CC(=O)O [ethylenediamine tetraacetic acid (EDTA), ethylenediamine tetraacetic acid]

% Inhibition [2, 5]: 0%
SMILES: c1c[nH]cn1 [imidazole]

SMILES: O=C(O)CI [iodoacetic acid]
% Inhibition [2]: 0%

SMILES: O=C(O)c1cc[c]([Hg+])cc1.[OH-] [p-hydroxymercuribenzoate]
inhibition of enzyme activity (in words) [2]: inhibited
% Inhibition [2, 5]: 100%

% Inhibition [2, 5]: 44%
SMILES: NNC(N)=S [thiosemicarbazide]

SMILES: c1ccc(-c2ccccn2)nc1 [α,α'-dipyridyl]
% Inhibition [2, 5]: 40%
